{"source": "patent US9493466B2", "about": "“Treatment of cancer with TOR kinase inhibitors” (Signal Pharmaceuticals, LLC, priority 2011, dated 2016)", "key": {"[1]": {"system": "NCI-H929 tumor", "assay": "Human plasma cell myeloma (NCI-H929) study", "type": "in vivo, SCID mice", "conditions": "FIG. 19", "from_the_text": "Human Plasma Cell Myeloma (NCI-H929) Study. Female SCID mice (Fox Chase SCID®, CB17/Icr-Prkce^scid, Charles River) were 8 weeks old at the beginning of the study. The animals were fed ad libitum water (reverse osmosis, 1 ppm Cl) and NIH 31 Modified and Irradiated Lab Diet® consisting of 18.0% crude protein, 5.0% crude fat, and 5.0% crude fiber. […]\nThe NCI-H929 tumor cells used for implantation were harvested during log phase growth and resuspended at a concentration of 5×10^7 cells/mL in 50% Matrigel (BD Biosciences). […] Tumor size, in mm^3, was calculated from: […]\nCompound 1 was administered via oral gavage (p.o.) once daily for twenty-eight days (qd×28). Treatment efficacy was determined from the calculated tumor volumes on Day 12. MTV(n), the median tumor volume for the number of animals, n, evaluable on the day of analysis, was determined for each group. Percent tumor growth inhibition (% TGI) was defined as the difference between the MTV of the control group and the MTV of the drug-treated group, expressed as a percentage of the MTV of the control group: […]\nEach animal was to be euthanized when its neoplasm reached the endpoint volume (2000 mm^3). For each animal whose tumor reached the endpoint volume, the time to endpoint (TTE) was calculated by the following equation: […]"}, "[2]": {"assay": "Phase 1/2 study Part A: pharmacokinetics", "type": "in vivo, human", "description": "During the first cycle only in Part A, each subject will be administered a single dose of Compound 1 (Day −1), followed by a 48-hour observation and PK sampling period, followed on Day 1 by daily uninterrupted dosing for 28 days (Cycle 1=30 days). In subsequent Part A cycles, subjects are treated in 28-day cycles with continuous dosing from Day 1 to 28. In Part B, subjects will receive continuous dosing for 28 days from the beginning—there is neither an initial observation period nor a 48-hour PK collection."}, "[3]": {"assay": "Storage stability of compound-spotted plates (repeat testing in A549)", "type": "physicochemical", "conditions": "DMSO-spotted sealed 384-well plates at −20° C.", "description": "Compound 1 was dissolved in dimethyl sulfoxide (DMSO) to prepare a 10 mM stock solution. A serial titration was performed to produce a working concentration range of […] to 10 mM. Aliquots to produce final concentrations of 1.5 nM to 10 μM were spotted via an acoustic dispenser (EDC ATS-100) into an empty 384-well plate. Compound 1 was spotted in a 10-point serial dilution fashion (3-fold dilution) in duplicate within the plate. The DMSO concentration was kept constant for a final assay concentration of 0.1% DMSO. Plates were replicated for use with different cell lines and testing periods. […] When ready for testing, plates were removed from the freezer, thawed, and unsealed just prior to the addition of the test cells. […] At the time when compound was added (t0), initial cell number was assessed via a viability assay (Cell Titer-Glo) by quantifying the level of luminescence generated by ATP present in viable cells. After 96 hours, cell viability of compound-treated cells was assessed via Cell Titer-Glo and luminescence measurement. […] The compound response against this control cell line was monitored closely to enable comparison of the data generated through the assay period. […] Results were then expressed as a GI50 value. […] In addition, the IC50 value of Compound 1 for each cell line was calculated."}}, "data": [{"smiles": "CO[C@H]1CC[C@H](N2C(=O)CNc3ncc(-c4ccc(C(C)(C)O)nc4)nc32)CC1", "note": "[Compound 1, 7-(6-(2-hydroxypropan-2-yl)pyridin-3-yl)-1-((1r,4r)-4-methoxycyclohexyl)-3,4-dihydropyrazino-[2,3-b]pyrazin-2(1H)-one]", "values": [{"measurement": "tumor growth delay", "setting": "[1]; 3 mg/kg and 10 mg/kg p.o. qd×28", "result": "Significant tumor growth delay"}, {"measurement": "tumor growth inhibition", "setting": "[1]; 10 mg/kg p.o. qd×28", "result": "Significant tumor growth inhibition"}, {"measurement": "mean steady state Cmax", "setting": "[2]; 45 mg, day 15", "result": 485, "unit": "ng/mL"}, {"measurement": "AUC0-24", "setting": "[2]; 45 mg, mean steady state", "result": 2371, "unit": "ng^xhr/mL"}, {"measurement": "drug accumulation", "setting": "[2]; after 15 days of dosing", "result": "only minimal drug accumulation"}, {"measurement": "exposures versus levels estimated to provide >50% inhibition of TORC1 (pS6) and TORC2 (pAKT) for at least 8 hours", "setting": "[2]; dose levels of 30 mg and higher, estimate from preclinical xenograft models", "result": "exceeded"}, {"measurement": "drug exposure versus dose", "setting": "[2]; high intersubject variability", "result": "Dose proportional"}, {"measurement": "stable under the storage conditions", "setting": "[3]", "result": "at least 1 month"}]}]}
